Source: patent US8546386B2, “Corrosion and microbial control in hydrocarbonaceous compositions” (Dow Global Technologies LLC, priority 2008, dated 2013)

Experiments:
Assay type in all cases: cell-based
[1] = system: Pseudomonas aeruginosa ATCC#33988; assay: Microbial testing in biodiesel fuel, plate count; conditions: for Ps. aeruginosa organism count: Biocide 0 ppm; for Bacteria (Ps. aeruginosa) count: no biocide
[2] = system: Pseudomonas aeruginosa ATCC#33988; assay: Microbial testing in diesel fuel, plate count
[3] = system: Yarrowia tropicalis ATCC#48138; assay: Microbial testing in biodiesel fuel, plate count; conditions: Biocide 0 ppm
[4] = system: Hormoconis resinae ATCC#20495; assay: Microbial testing in diesel fuel, plate count
[5] = system: Hormoconis resinae ATCC#20495; assay: Microbial testing in biodiesel fuel, plate count; conditions: for H. resinae organism count: Biocide 0 ppm; for Mold (H. resinae) count: no biocide
[6] = system: Yarrowia tropicalis ATCC#48138; assay: Microbial testing in diesel fuel, plate count
[7] = system: mixed inoculum (Ps. aeruginosa, Y. tropicalis, H. resinae); assay: Microbial resistance of biodiesel fuel, overall statements; conditions: absence of biocide
[8] = amino alcohol 1500 ppm + FS 135 ppm, Day 0
[9] = amino alcohol 1500 ppm + FS 135 ppm, Wk 1
[10] = amino alcohol 1500 ppm + FS 135 ppm, Wk 2
[11] = amino alcohol 1500 ppm + FS 135 ppm, Wk 3
[12] = amino alcohol 1500 ppm + FS 135 ppm, Wk 4
[13] = amino alcohol 1500 ppm + FS 1000 ppm, Day 0
[14] = amino alcohol 1500 ppm + FS 1000 ppm, Wk 1
[15] = amino alcohol 1500 ppm + FS 1000 ppm, Wk 2
[16] = amino alcohol 1500 ppm + FS 1000 ppm, Wk 3
[17] = amino alcohol 1500 ppm + FS 1000 ppm, Wk 4
[18] = amino alcohol 1500 ppm, no biocide, Day 0
[19] = amino alcohol 1500 ppm, no biocide, Wk 1
[20] = amino alcohol 1500 ppm, no biocide, Wk 2
[21] = amino alcohol 1500 ppm, no biocide, Wk 3
[22] = amino alcohol 1500 ppm, no biocide, Wk 4
[23] = amino alcohol 3000 ppm + FS 135 ppm, Day 0
[24] = amino alcohol 3000 ppm + FS 135 ppm, Wk 1
[25] = amino alcohol 3000 ppm + FS 135 ppm, Wk 2
[26] = amino alcohol 3000 ppm + FS 135 ppm, Wk 3
[27] = amino alcohol 3000 ppm + FS 135 ppm, Wk 4
[28] = amino alcohol 3000 ppm + FS 1000 ppm, Day 0
[29] = amino alcohol 3000 ppm + FS 1000 ppm, Wk 1
[30] = amino alcohol 3000 ppm + FS 1000 ppm, Wk 2
[31] = amino alcohol 3000 ppm + FS 1000 ppm, Wk 3
[32] = amino alcohol 3000 ppm + FS 1000 ppm, Wk 4
[33] = amino alcohol 3000 ppm, no biocide, Day 0
[34] = amino alcohol 3000 ppm, no biocide, Wk 1
[35] = amino alcohol 3000 ppm, no biocide, Wk 2
[36] = amino alcohol 3000 ppm, no biocide, Wk 3
[37] = amino alcohol 3000 ppm, no biocide, Wk 4

## NC1(CO)CCCCC1 [ACyHM, 1-aminocyclohexylmethanol]
[1]; aminoalcohol 1500 ppm, Week 1
  Ps. aeruginosa organism count: <1.0E2
[1]; aminoalcohol 1500 ppm, Week 2
  Ps. aeruginosa organism count: <1.0E2
[1]; aminoalcohol 1500 ppm, Week 3
  Ps. aeruginosa organism count: <1.0E2
[1]; aminoalcohol 1500 ppm, Week 4
  Ps. aeruginosa organism count: <1.0E2
[1]; aminoalcohol 3000 ppm, Week 1
  Ps. aeruginosa organism count: <1.0E2
[1]; aminoalcohol 3000 ppm, Week 2
  Ps. aeruginosa organism count: <1.0E2
[1]; aminoalcohol 3000 ppm, Week 3
  Ps. aeruginosa organism count: <1.0E2
[1]; aminoalcohol 3000 ppm, Week 4
  Ps. aeruginosa organism count: <1.0E2
[2]; [8]
  Ps. aeruginosa organism count: 3.7E6
[2]; [9]
  Ps. aeruginosa organism count: 9.0E5
[2]; [10]
  Ps. aeruginosa organism count: 4.3E4
[2]; [11]
  Ps. aeruginosa organism count: 1.1E2
[2]; [12]
  Ps. aeruginosa organism count: 2.3E2
[2]; [13]
  Ps. aeruginosa organism count: 3.7E6
[2]; [14]
  Ps. aeruginosa organism count: 7.8E3
[2]; [15]
  Ps. aeruginosa organism count: <10
[2]; [16]
  Ps. aeruginosa organism count: <10
[2]; [17]
  Ps. aeruginosa organism count: <10
[2]; [18]
  Ps. aeruginosa organism count: 3.7E6
[2]; [19]
  Ps. aeruginosa organism count: 5.8E6
[2]; [20]
  Ps. aeruginosa organism count: 6.3E5
[2]; [21]
  Ps. aeruginosa organism count: 4.4E5
[2]; [22]
  Ps. aeruginosa organism count: 8.7E5
[2]; [23]
  Ps. aeruginosa organism count: 3.7E6
[2]; [24]
  Ps. aeruginosa organism count: 8.6E2
[2]; [25]
  Ps. aeruginosa organism count: 7.0E1
[2]; [26]
  Ps. aeruginosa organism count: <10
[2]; [27]
  Ps. aeruginosa organism count: 9.0E1
[2]; [28]
  Ps. aeruginosa organism count: 3.7E6
[2]; [29]
  Ps. aeruginosa organism count: <10
[2]; [30]
  Ps. aeruginosa organism count: <10
[2]; [31]
  Ps. aeruginosa organism count: <10
[2]; [32]
  Ps. aeruginosa organism count: <10
[2]; [33]
  Ps. aeruginosa organism count: 3.7E6
[2]; [34]
  Ps. aeruginosa organism count: 2.0E6
[2]; [35]
  Ps. aeruginosa organism count: 1.4E5
[2]; [36]
  Ps. aeruginosa organism count: 7.7E4
[2]; [37]
  Ps. aeruginosa organism count: 9.0E4
[3]; aminoalcohol 1500 ppm, Week 1
  Y. tropicalis organism count: <1.0E2
[3]; aminoalcohol 1500 ppm, Week 2
  Y. tropicalis organism count: <1.0E2
[3]; aminoalcohol 1500 ppm, Week 3
  Y. tropicalis organism count: <1.0E2
[3]; aminoalcohol 1500 ppm, Week 4
  Y. tropicalis organism count: <1.0E2
[3]; aminoalcohol 3000 ppm, Week 1
  Y. tropicalis organism count: <1.0E2
[3]; aminoalcohol 3000 ppm, Week 2
  Y. tropicalis organism count: <1.0E2
[3]; aminoalcohol 3000 ppm, Week 3
  Y. tropicalis organism count: <1.0E2
[3]; aminoalcohol 3000 ppm, Week 4
  Y. tropicalis organism count: <1.0E2
[4]; [8]
  H. resinae organism count: 5.3E5
[4]; [9]
  H. resinae organism count: 2.5E5
[4]; [10]
  H. resinae organism count: 2.0E3
[4]; [11]
  H. resinae organism count: 4.3E2
[4]; [12]
  H. resinae organism count: 7.0E2
[4]; [13]
  H. resinae organism count: 5.3E5
[4]; [14]
  H. resinae organism count: 1.1E4
[4]; [15]
  H. resinae organism count: <10
[4]; [16]
  H. resinae organism count: <10
[4]; [17]
  H. resinae organism count: 8.0E1
[4]; [18]
  H. resinae organism count: 5.3E5
[4]; [19]
  H. resinae organism count: 5.0E5
[4]; [20]
  H. resinae organism count: 1.3E5
[4]; [21]
  H. resinae organism count: 1.2E5
[4]; [22]
  H. resinae organism count: 2.7E5
[4]; [23]
  H. resinae organism count: 5.3E5
[4]; [24]
  H. resinae organism count: 2.0E3
[4]; [25]
  H. resinae organism count: 2.7E2
[4]; [26]
  H. resinae organism count: <10
[4]; [27]
  H. resinae organism count: 1.6E2
[4]; [28]
  H. resinae organism count: 5.3E5
[4]; [29]
  H. resinae organism count: 4.3E2
[4]; [30]
  H. resinae organism count: <10
[4]; [31]
  H. resinae organism count: 5.0E1
[4]; [32]
  H. resinae organism count: <10
[4]; [33]
  H. resinae organism count: 5.3E5
[4]; [34]
  H. resinae organism count: 9.4E4
[4]; [35]
  H. resinae organism count: 4.6E4
[4]; [36]
  H. resinae organism count: 6.6E4
[4]; [37]
  H. resinae organism count: 4.8E4
[5]; aminoalcohol 1500 ppm, Week 1
  H. resinae organism count: <1.0E2
[5]; aminoalcohol 1500 ppm, Week 2
  H. resinae organism count: <1.0E2
[5]; aminoalcohol 1500 ppm, Week 3
  H. resinae organism count: <1.0E2
[5]; aminoalcohol 1500 ppm, Week 4
  H. resinae organism count: <1.0E2
[5]; aminoalcohol 3000 ppm, Week 1
  H. resinae organism count: <1.0E2
[5]; aminoalcohol 3000 ppm, Week 2
  H. resinae organism count: <1.0E2
[5]; aminoalcohol 3000 ppm, Week 3
  H. resinae organism count: <1.0E2
[5]; aminoalcohol 3000 ppm, Week 4
  H. resinae organism count: <1.0E2
[6]; [8]
  Y. tropicalis organism count: 2.8E5
[6]; [9]
  Y. tropicalis organism count: 7.8E4
[6]; [10]
  Y. tropicalis organism count: 5.0E3
[6]; [11]
  Y. tropicalis organism count: 6.7E2
[6]; [12]
  Y. tropicalis organism count: 1.8E2
[6]; [13]
  Y. tropicalis organism count: 2.8E5
[6]; [14]
  Y. tropicalis organism count: 1.6E4
[6]; [15]
  Y. tropicalis organism count: <10
[6]; [16]
  Y. tropicalis organism count: <10
[6]; [17]
  Y. tropicalis organism count: <10
[6]; [18]
  Y. tropicalis organism count: 2.8E5
[6]; [19]
  Y. tropicalis organism count: 4.5E5
[6]; [20]
  Y. tropicalis organism count: 1.3E5
[6]; [21]
  Y. tropicalis organism count: 7.6E4
[6]; [22]
  Y. tropicalis organism count: 5.3E4
[6]; [23]
  Y. tropicalis organism count: 2.8E5
[6]; [24]
  Y. tropicalis organism count: 1.3E2
[6]; [25]
  Y. tropicalis organism count: <10
[6]; [26]
  Y. tropicalis organism count: <10
[6]; [27]
  Y. tropicalis organism count: <10
[6]; [28]
  Y. tropicalis organism count: 2.8E5
[6]; [29]
  Y. tropicalis organism count: <10
[6]; [30]
  Y. tropicalis organism count: <10
[6]; [31]
  Y. tropicalis organism count: <10
[6]; [32]
  Y. tropicalis organism count: <10
[6]; [33]
  Y. tropicalis organism count: 2.8E5
[6]; [34]
  Y. tropicalis organism count: 9.3E4
[6]; [35]
  Y. tropicalis organism count: 4.0E4
[6]; [36]
  Y. tropicalis organism count: 1.6E4
[6]; [37]
  Y. tropicalis organism count: 2.7E4

## CCCCCCCC/C=C\CCCCCCCC(=O)[O-].[K+] [KOH/Oleic, potassium oleate]
[7]
  effect on microbial resistance of biodiesel: no effect

## CCCCCCCC/C=C\CCCCCCCC(=O)O [Oleic Acid, oleic acid]
[1]; additive 500 ppm, Week 1
  Bacteria (Ps. aeruginosa) count: 7.80E+05 Bact/ml
[1]; additive 500 ppm, Week 2
  Bacteria (Ps. aeruginosa) count: 8.80E+05 Bact/ml
[1]; additive 500 ppm, Week 3
  Bacteria (Ps. aeruginosa) count: 7.40E+05 Bact/ml
[1]; additive 500 ppm, Week 4
  Bacteria (Ps. aeruginosa) count: 8.00E+05 Bact/ml
[1]; additive 1500 ppm, Week 1
  Bacteria (Ps. aeruginosa) count: 5.00E+04 Bact/ml
[1]; additive 1500 ppm, Week 2
  Bacteria (Ps. aeruginosa) count: 2.00E+05 Bact/ml
[1]; additive 1500 ppm, Week 3
  Bacteria (Ps. aeruginosa) count: 1.30E+05 Bact/ml
[1]; additive 1500 ppm, Week 4
  Bacteria (Ps. aeruginosa) count: 3.20E+05 Bact/ml
[5]; additive 500 ppm, Week 1
  Mold (H. resinae) count: 1.70E+05 Mold/ml
[5]; additive 500 ppm, Week 2
  Mold (H. resinae) count: 6.00E+05 Mold/ml
[5]; additive 500 ppm, Week 3
  Mold (H. resinae) count: 8.20E+05 Mold/ml
[5]; additive 500 ppm, Week 4
  Mold (H. resinae) count: 7.80E+03 Mold/ml
[5]; additive 1500 ppm, Week 1
  Mold (H. resinae) count: 6.40E+04 Mold/ml
[5]; additive 1500 ppm, Week 2
  Mold (H. resinae) count: 7.70E+05 Mold/ml
[5]; additive 1500 ppm, Week 3
  Mold (H. resinae) count: 6.00E+05 Mold/ml
[5]; additive 1500 ppm, Week 4
  Mold (H. resinae) count: 9.80E+03 Mold/ml
[7]
  effect on microbial resistance of biodiesel: no effect
